Test results as given in ChEMBL document CHEMBL4765372, “Design, synthesis and anti-inflammatory activity of 3-amino acid derivatives of ocotillol-type sapogenins” (Eur J Med Chem, 2020).
Activity calls are given as the source filed them. The calls are words filed in the database; no cut-off is given here.

Key:
RAW264.7 [1] = test: Cytotoxicity against mouse RAW264.7 assessed as reduction in cell viability at 20 uM measured after 24 hrs by MTT assay relative to control; assay type: cell-based; conditions: raw264.7, 24 h
RAW264.7 [2] = test: Antiinflammatory activity in mouse RAW264.7 cells assessed as inhibition of LPS-induced NO production at 20 uM after 24 hrs by Griess method; assay type: functional, cell-based
RAW264.7 [3] = test: Inhibition of LPS-induced TNFalpha protein expression in mouse RAW264.7 cells upto 30 uM measured after 6 hrs by ELISA; assay type: functional, cell-based; conditions: dose microM <=30, time 6.0 hrs
RAW264.7 [4] = test: Inhibition of LPS-induced IL-6 protein expression in mouse RAW264.7 cells upto 30 uM measured after 6 hrs by ELISA; assay type: functional, cell-based; conditions: dose microM <=30, time 6.0 hrs
RAW264.7 [5] = test: Inhibition of LPS-induced NO production in mouse RAW264.7 cells assessed as reduction in iNOS protein expression measured after 24 hrs by Western blot analysis; assay type: functional, cell-based; conditions: dose microM <=30, time 24.0 hrs
RAW264.7 [6] = test: Inhibition of LPS-induced NO production in mouse RAW264.7 cells assessed as reduction in COX-2 protein expression measured after 24 hrs by Western blot analysis; assay type: functional, cell-based; conditions: dose microM <=30, time 24.0 hrs
RAW264.7 [7] = test: Inhibition of LPS-stimulated NFkappaB activation in mouse RAW264.7 cells assessed as reduction in LPS-induced IkappaB phosphorylation at 7.5 to 30 uM after 2 hrs by Western blot analysis; assay type: cell-based; conditions: dose 7.5-30 µM
[8] = target: Transcription factor p65 (Mus musculus) (UniProt Q04207); test: Inhibition of LPS-induced NFkappaB p65 nucleus translocation in mouse RAW264.7 cells at 30 uM measured after 2 hr by immunofluorescence microscopic analysis; assay type: cell-based
Transcription factor p65 (Mus musculus), sequence (Q04207 whole entry): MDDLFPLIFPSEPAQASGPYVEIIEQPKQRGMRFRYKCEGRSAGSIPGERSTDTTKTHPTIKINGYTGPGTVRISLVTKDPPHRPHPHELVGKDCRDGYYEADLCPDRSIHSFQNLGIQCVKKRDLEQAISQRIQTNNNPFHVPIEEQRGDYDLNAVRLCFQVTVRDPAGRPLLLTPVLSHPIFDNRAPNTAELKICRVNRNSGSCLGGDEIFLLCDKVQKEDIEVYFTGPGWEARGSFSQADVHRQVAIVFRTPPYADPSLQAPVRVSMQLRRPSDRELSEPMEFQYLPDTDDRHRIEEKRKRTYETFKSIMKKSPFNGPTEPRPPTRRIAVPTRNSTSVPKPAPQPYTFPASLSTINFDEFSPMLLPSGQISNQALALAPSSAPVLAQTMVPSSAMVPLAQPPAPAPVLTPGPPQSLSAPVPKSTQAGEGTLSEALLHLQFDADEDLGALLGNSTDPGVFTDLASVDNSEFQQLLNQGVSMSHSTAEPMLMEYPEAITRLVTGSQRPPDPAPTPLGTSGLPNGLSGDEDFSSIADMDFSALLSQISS

RAW264.7 [9] = test: Inhibition of LPS-induced JNK phosphorylation in mouse RAW264.7 cell upto 30 uM measured after 2 hr by Western blot analysis; conditions: dose microM <=30, time 2.0 hrs
[10] = target: Mitogen-activated protein kinase 1 and 3 (ERK2 and ERK1) (Mus musculus) (UniProt P63085+Q63844); test: Inhibition of LPS-induced ERK1/2 phosphorylation in mouse RAW264.7 cell upto 30 uM measured after 2 hr by Western blot analysis; conditions: dose microM <=30, time 2.0 hrs
Mitogen-activated protein kinase 1 and 3 (ERK2 and ERK1) (Mus musculus), sequence (P63085 whole entry, looked up): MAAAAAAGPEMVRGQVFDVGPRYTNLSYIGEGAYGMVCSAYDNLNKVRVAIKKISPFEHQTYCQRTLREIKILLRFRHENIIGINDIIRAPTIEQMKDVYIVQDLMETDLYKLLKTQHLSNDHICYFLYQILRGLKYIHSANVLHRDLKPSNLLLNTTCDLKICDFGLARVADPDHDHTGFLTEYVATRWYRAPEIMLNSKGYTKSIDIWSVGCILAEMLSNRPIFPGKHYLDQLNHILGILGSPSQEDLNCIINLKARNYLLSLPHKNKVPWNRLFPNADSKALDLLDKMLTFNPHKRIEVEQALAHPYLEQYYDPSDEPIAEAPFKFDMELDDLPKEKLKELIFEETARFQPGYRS
Mitogen-activated protein kinase 1 and 3 (ERK2 and ERK1) (Mus musculus), sequence (Q63844 whole entry, looked up): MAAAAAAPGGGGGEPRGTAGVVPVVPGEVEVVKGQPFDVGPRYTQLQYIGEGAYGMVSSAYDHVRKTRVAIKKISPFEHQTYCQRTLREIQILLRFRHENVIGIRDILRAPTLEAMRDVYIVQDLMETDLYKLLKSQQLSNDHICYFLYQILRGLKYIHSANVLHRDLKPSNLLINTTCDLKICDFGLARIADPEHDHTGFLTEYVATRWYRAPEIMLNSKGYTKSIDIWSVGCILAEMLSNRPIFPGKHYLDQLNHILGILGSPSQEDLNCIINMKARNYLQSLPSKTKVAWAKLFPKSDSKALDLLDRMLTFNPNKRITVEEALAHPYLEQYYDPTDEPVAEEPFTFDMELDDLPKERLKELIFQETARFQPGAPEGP

RAW264.7 [11] = test: Inhibition of LPS-induced p38 phosphorylation in mouse RAW264.7 cell upto 30 uM measured after 2 hr by Western blot analysis; conditions: dose microM <=30, time 2.0 hrs

Row | SMILES | Activity (RAW264.7 [1]) | Activity (RAW264.7 [2]) | other results
1 | CC(C)(O)[C@H]1CC[C@@](C)([C@H]2CC[C@]3(C)[C@@H]2[C@H](O)C[C@@H]2[C@@]4(C)CC[C@H](OC(=O)CNC(=O)CN)C(C)(C)[C@@H]4CC[C@]23C)O1 | Non-Toxic | Active | 
2 | CC(C)(C)OC(=O)NCCCC[C@H](NC(=O)OC(C)(C)C)C(=O)O[C@H]1CC[C@]2(C)[C@H]3C[C@@H](O)[C@@H]4[C@@H]([C@]5(C)CC[C@H](C(C)(C)O)O5)CC[C@@]4(C)[C@]3(C)CC[C@H]2C1(C)C | Non-Toxic | Active | 
3 | C[C@]12CCC(=O)C=C1CC[C@@H]1[C@@H]2[C@@H](O)C[C@@]2(C)[C@H]1CC[C@]2(O)C(=O)COC(=O)CCC(=O)[O-].[Na+] [HYDROCORTISONE SODIUM SUCCINATE] | Non-Toxic |  | 
4 | CC(C)(O)[C@H]1CC[C@@](C)([C@H]2CC[C@]3(C)[C@@H]2[C@H](O)C[C@@H]2[C@@]4(C)CC[C@H](OC(=O)[C@@H](N)CCC(=O)O)C(C)(C)[C@@H]4CC[C@]23C)O1 | Non-Toxic | Active | 
5 | CC(C)(O)[C@H]1CC[C@@](C)([C@H]2CC[C@]3(C)[C@@H]2[C@H](O)C[C@@H]2[C@@]4(C)CC[C@H](OC(=O)[C@@H](N)Cc5ccccc5)C(C)(C)[C@@H]4CC[C@]23C)O1 | Non-Toxic |  | 
6 | CC(C)(O)[C@@H]1CC[C@@](C)([C@H]2CC[C@]3(C)[C@@H]2[C@H](O)C[C@@H]2[C@@]4(C)CC[C@H](OC(=O)CNC(=O)CN)C(C)(C)[C@@H]4CC[C@]23C)O1 | Non-Toxic | Active | 
7 | CC(C)(O)[C@H]1CC[C@@](C)([C@H]2CC[C@]3(C)[C@@H]2[C@H](O)C[C@@H]2[C@@]4(C)CC[C@H](OC(=O)CN)C(C)(C)[C@@H]4CC[C@]23C)O1 | Non-Toxic | Active | 
8 | CC(C)(C)OC(=O)NCC(=O)NCC(=O)O[C@H]1CC[C@]2(C)[C@H]3C[C@@H](O)[C@@H]4[C@@H]([C@]5(C)CC[C@@H](C(C)(C)O)O5)CC[C@@]4(C)[C@]3(C)CC[C@H]2C1(C)C | Non-Toxic | Active | 
9 | CC(C)(C)OC(=O)NCC(=O)NCC(=O)NCC(=O)O[C@H]1CC[C@]2(C)[C@H]3C[C@@H](O)[C@@H]4[C@@H]([C@]5(C)CC[C@@H](C(C)(C)O)O5)CC[C@@]4(C)[C@]3(C)CC[C@H]2C1(C)C | Non-Toxic |  | 
10 | CC(C)(O)[C@@H]1CC[C@@](C)([C@H]2CC[C@]3(C)[C@@H]2[C@H](O)C[C@@H]2[C@@]4(C)CC[C@H](OC(=O)[C@@H](N)CCCCN)C(C)(C)[C@@H]4CC[C@]23C)O1 | Non-Toxic |  | 
11 | CC(C)(C)OC(=O)N[C@@H](Cc1ccccc1)C(=O)O[C@H]1CC[C@]2(C)[C@H]3C[C@@H](O)[C@@H]4[C@@H]([C@]5(C)CC[C@@H](C(C)(C)O)O5)CC[C@@]4(C)[C@]3(C)CC[C@H]2C1(C)C | Non-Toxic |  | 
12 | CC(C)(O)[C@@H]1CC[C@@](C)([C@H]2CC[C@]3(C)[C@@H]2[C@H](O)C[C@@H]2[C@@]4(C)CC[C@H](OC(=O)[C@@H](N)CCC(=O)O)C(C)(C)[C@@H]4CC[C@]23C)O1 | Non-Toxic | Active | 
13 | CC(C)(O)[C@@H]1CC[C@@](C)([C@H]2CC[C@]3(C)[C@@H]2[C@H](O)C[C@@H]2[C@@]4(C)CC[C@H](O)C(C)(C)[C@@H]4CC[C@]23C)O1 | Non-Toxic | Active | 
14 | CC(C)(O)[C@@H]1CC[C@@](C)([C@H]2CC[C@]3(C)[C@@H]2[C@H](O)C[C@@H]2[C@@]4(C)CC[C@H](OC(=O)CNC(=O)CNC(=O)CN)C(C)(C)[C@@H]4CC[C@]23C)O1 | Non-Toxic | Active | 
15 | CC(C)(C)OC(=O)CC[C@H](NC(=O)OC(C)(C)C)C(=O)O[C@H]1CC[C@]2(C)[C@H]3C[C@@H](O)[C@@H]4[C@@H]([C@]5(C)CC[C@@H](C(C)(C)O)O5)CC[C@@]4(C)[C@]3(C)CC[C@H]2C1(C)C | Non-Toxic |  | 
16 | CC(C)(O)[C@@H]1CC[C@@](C)([C@H]2CC[C@]3(C)[C@@H]2[C@H](O)C[C@@H]2[C@@]4(C)CC[C@H](OC(=O)CN)C(C)(C)[C@@H]4CC[C@]23C)O1 | Non-Toxic | Active | 
17 | CC(C)(C)OC(=O)NCC(=O)NCC(=O)NCC(=O)O[C@H]1CC[C@]2(C)[C@H]3C[C@@H](O)[C@@H]4[C@@H]([C@]5(C)CC[C@H](C(C)(C)O)O5)CC[C@@]4(C)[C@]3(C)CC[C@H]2C1(C)C | Non-Toxic | inactive | 
18 | CC(C)(O)[C@H]1CC[C@@](C)([C@H]2CC[C@]3(C)[C@@H]2[C@H](O)C[C@@H]2[C@@]4(C)CC[C@H](OC(=O)CNC(=O)CNC(=O)CN)C(C)(C)[C@@H]4CC[C@]23C)O1 | Non-Toxic | Active | 
19 | CC(C)(C)OC(=O)CC[C@H](NC(=O)OC(C)(C)C)C(=O)O[C@H]1CC[C@]2(C)[C@H]3C[C@@H](O)[C@@H]4[C@@H]([C@]5(C)CC[C@H](C(C)(C)O)O5)CC[C@@]4(C)[C@]3(C)CC[C@H]2C1(C)C | Non-Toxic |  | 
20 | CC(C)(C)OC(=O)NCCCC[C@H](NC(=O)OC(C)(C)C)C(=O)O[C@H]1CC[C@]2(C)[C@H]3C[C@@H](O)[C@@H]4[C@@H]([C@]5(C)CC[C@@H](C(C)(C)O)O5)CC[C@@]4(C)[C@]3(C)CC[C@H]2C1(C)C | Non-Toxic | Active | 
21 | CC(C)(O)[C@H]1CC[C@@](C)([C@H]2CC[C@]3(C)[C@@H]2[C@H](O)C[C@@H]2[C@@]4(C)CC[C@H](OC(=O)[C@@H](N)CCCCN)C(C)(C)[C@@H]4CC[C@]23C)O1 | Non-Toxic |  | 
22 | CC(C)(O)[C@@H]1CC[C@@](C)([C@H]2CC[C@]3(C)[C@@H]2[C@H](O)C[C@@H]2[C@@]4(C)CC[C@H](OC(=O)[C@@H](N)Cc5ccccc5)C(C)(C)[C@@H]4CC[C@]23C)O1 | Non-Toxic |  | 
23 | CC(C)(C)OC(=O)NCC(=O)O[C@H]1CC[C@]2(C)[C@H]3C[C@@H](O)[C@@H]4[C@@H]([C@]5(C)CC[C@@H](C(C)(C)O)O5)CC[C@@]4(C)[C@]3(C)CC[C@H]2C1(C)C | Non-Toxic | Active | 
24 | CC(C)(C)OC(=O)NCC(=O)NCC(=O)O[C@H]1CC[C@]2(C)[C@H]3C[C@@H](O)[C@@H]4[C@@H]([C@]5(C)CC[C@H](C(C)(C)O)O5)CC[C@@]4(C)[C@]3(C)CC[C@H]2C1(C)C | Non-Toxic | Active | inhibition (RAW264.7 [3]): Dose-dependent effect; inhibition (RAW264.7 [4]): Dose-dependent effect; inhibition (RAW264.7 [5]): Dose-dependent effect; inhibition (RAW264.7 [6]): Dose-dependent effect; inhibition (RAW264.7 [7]): Dose-dependent effect; inhibition [8]: Dose-dependent effect; inhibition (RAW264.7 [9]): inactive; inhibition [10]: Dose-dependent effect; inhibition (RAW264.7 [11]): Dose-dependent effect
25 | CC(C)(C)OC(=O)NCC(=O)O[C@H]1CC[C@]2(C)[C@H]3C[C@@H](O)[C@@H]4[C@@H]([C@]5(C)CC[C@H](C(C)(C)O)O5)CC[C@@]4(C)[C@]3(C)CC[C@H]2C1(C)C | Non-Toxic | Active | 
26 | CC(C)(C)OC(=O)N[C@@H](Cc1ccccc1)C(=O)O[C@H]1CC[C@]2(C)[C@H]3C[C@@H](O)[C@@H]4[C@@H]([C@]5(C)CC[C@H](C(C)(C)O)O5)CC[C@@]4(C)[C@]3(C)CC[C@H]2C1(C)C | Non-Toxic |  | 
27 | CC(C)(O)[C@H]1CC[C@@](C)([C@H]2CC[C@]3(C)[C@@H]2[C@H](O)C[C@@H]2[C@@]4(C)CC[C@H](O)C(C)(C)[C@@H]4CC[C@]23C)O1 | Non-Toxic | Active | 
